Experimental data reported in patent US20060160146A1, “Method of screening compound affecting amyloid beta production” (OTSUKA PHARMACEUTICAL CO., LTD., priority 2002, published 2006).

Assays:
α-secretase = α-secretase cleavage product (sAPPα) in culture supernatant of COS7 cells transiently expressing mutated APP, Western blotting; type: cell-based, monkey; set-up: key to α-cleavage: ↓: indicates a reduced amount of secretase cleavage product; →: indicates an unchanged amount of each secretase cleavage product; ↑: indicates an increased amount of secretase cleavage product; 0: indicates no detection of each secretase cleavage product; conditions: for α-cleavage: amount of sAPPα versus wild-type APP, 48 hours after transfection; for amount of α-secretase cleavage product: in words, versus wild-type APP
Text: (§1) BE11-hAPP695 was used as a starting material which was produced by adding a BE11 epitope tag immediately after a signal peptide of the N-terminus of a human-type APP gene (FIG. 2) and incorporating it into a vector. With respect to the amino acid at the N-treminus of the α-secretase cleavage site of APP695 (lysine at position 16 of β-amyloid) or the amino acid at the C-terminus (leucine at position 17 of β-amyloid), tryptophan was introduced into position 16 and alanine, glutamic acid, lysine, proline, glutamine, and threonine were introduced into position 17 by the site-directed mutagenesis (QuickChange, Stratagene). A construct was produced in which these mutated APPs and wild-type APPs are respectively incorporated into a pCIneo mammalian expression vector (Promega), and the construct was then transfected to a COS7 cell by a liposome method (DOTAP, Boeringer Manheim), to achieve transient expression. Forty-eight hours after transfection, the cell and culture supernatant were collected, and the expressed proteins and the processing were analyzed by 8% SDS-PAGE/Western blotting. The expression of a cell membrane-associated full-length APP confirmed using the monoclonal antibody (Mab BE11) against BE11. The expression level was standardized, and then α-secretase cleavage products (sAPPα) and β-secretase cleavage products (sAPPβ) which were secreted in the culture supernatant (medium) were detected and quantified using a specific antibody against the respective products.

β-secretase = β-secretase cleavage product (sAPPβ) in culture supernatant of COS7 cells transiently expressing mutated APP, Western blotting; type: cell-based, monkey; set-up: key to β-cleavage: ↓: indicates a reduced amount of secretase cleavage product; →: indicates an unchanged amount of each secretase cleavage product; ↑: indicates an increased amount of secretase cleavage product; 0: indicates no detection of each secretase cleavage product; conditions: for β-cleavage: amount of sAPPβ versus wild-type APP, 48 hours after transfection
Text: as §1

Substance	α-cleavage (α-secretase)	amount of α-secretase cleavage product (α-secretase)	β-cleavage (β-secretase)	amount of β-secretase cleavage product (β-secretase; in words, versus wild-type APP)
Ala (position 17): human APP695 modified protein, leucine at position 17 of β-amyloid replaced with alanine	↓	decreased	→	
Glu (position 17): human APP695 modified protein, leucine at position 17 of β-amyloid replaced with glutamic acid	0	No α-secretase cleavage product was detected	→	
Lys (position 17): human APP695 modified protein, leucine at position 17 of β-amyloid replaced with lysine	↓↓	decreased	↑	slightly increased
Pro (position 17): human APP695 modified protein, leucine at position 17 of β-amyloid replaced with proline	0	No α-secretase cleavage product was detected	→	
Trp (position 16): human APP695 modified protein, lysine at position 16 of β-amyloid replaced with tryptophan	↓↓	sharply decreased	→	
